Data reported in article PMC5126668 (PeerJ, 2016).
Several values for one entry are separate records, joined by “and”; a condition that tells them apart may be missing. Equal values may be shown once. Read-outs that look alike come from different tables or passages of the source.

Legend:
[1] = HK-2 cell viability, MTT assay, with or without co-cultured HLMs; assay type: cell-based, human; details: human; for viability at 4 h, 30 µM: BAK 30 µM; for viability at 4 h, 75 µM: BAK 75 µM; for viability at 4 h, 90 µM: BAK 90 µM; for viability at 4 h, 45 µM: BAK 45 µM; for viability at 4 h, 60 µM: BAK 60 µM
Description: (§1) HK-2 cells obtained from Peking Union Medical College were maintained in D/F12 medium containing 10% fetal bovine serum, 2 mM glutamine and 1 × 10^5 U/L penicillin and streptomycin at 37 °C in a 5% CO2 atmosphere. […] The samples containing HLMs were prepared in an ice bath, and three replicates were tested for each dose. In brief, HK-2 cells (100 µL) were seeded at 3 × 10^5cells/mL in 96-well plates. After 12 h, 200 µL of the test compound was added. For the BAK and GA with HLMs group, GA was pre-incubated with NADPH in HLMs for 30 min at 37 °C and then mixed with BAK; for the other groups, all tested compounds except NADPH were mixed, and NADPH was then added to start the metabolic reaction. After 4 h of culture, 100 µL of 0.5 g/L MTT was added, and the cells were cultured for 4 h. Subsequently, 150 µL of 4% isopropanol was added to cells for 15 min at 37 °C, and the absorbance at 570 nm was then read by a microplate reader (Multiskan MK3, Thermo, USA). The relative cell viability (%) was calculated as follows: Mean Absorbance of Sample/Mean Absorbance of Vehicle Control × 100%.

HK-2 cells = assay: as above; assay type: cell-based, human; details: BAK combined with GA
Description: as §1

BAK metabolism in HLMs = assay: Metabolic elimination of BAK in HLMs and its inhibition by GA (HPLC); assay type: in vitro ADME, human; details: for Remaining percentage of BAK (%) / remaining of BAK (%), single samples: BAK 10 µM; for Remaining percentage of BAK (%): HLMs 0.5 g/L, mean; for remaining of BAK (%), single samples: t=30 min
Description: The HLM mixtures were prepared on ice. […] At the end of the incubation (0 or 30 min), 200 µL of methanol-acetonitrile (1:1, V:V) solution containing tanshinone II A (internal standard) was added to terminate the reaction. The mixtures were then vortexed for 2 min followed by centrifugation at 14,500 rpm for 10 min. A 10 µL aliquot of the supernatant was then injected for HPLC analysis. […] RContr is the percentage of BAK remaining in the BAK group.

[2] = BAK exposure in rat liver and kidney 24 h after dosing; assay type: in vivo, Sprague–Dawley rats; details: for concentration at 24 h: Sprague-Dawley, po, 200 mg/kg
Description: The liver and kidney tissue were also collected from individual rats 24 h after dosing, weighed and then homogenized in saline solution (0.6 g wet weight/mL) on ice. Subsequently, 10 µL of internal standard solution (tanshinone II A, 10 µg/mL) and 0.3 mL of acetonitrile were added to 0.1 mL of plasma or homogenates, and centrifuged at 13,300 rpm for 15 min after 2 min of vortexing. The supernatant was reconstituted in 100 µL of mobile phase after drying under 40 °C nitrogen, the mixture then was vortexed for 5 min and centrifuged at 13,300 rpm for 15 min. Finally, 20 µL of supernatant was injected for HPLC analysis. […] The mobile phase consisted of methanol and water with 0.1% formic acid (89:11, v/v) and was supplied at a flow rate of 0.8 mL/min. The detection wavelength was set to 262 nm. […] The recovery was >93%.

[3] = with HLM, raw data, read-out: cell viability(%), single values
[4] = HK-2 cells co-cultured with HLMs (0.16 g/L), with HLMs 0.16 g/L, 4 h, mean, read-out: HK-2 Cell viability (%)
[5] = HK-2 cells, without HLMs, without HLMs, 4 h, mean, read-out: HK-2 Cell viability (%)

C=C[C@@](C)(/C=C/c1ccc(O)cc1)CCC=C(C)C [BAK, Bakuchiol]
viability at 4 h, 30 µM [1, 3]: 98.8% | viability at 4 h, 75 µM [1, 3]: 108% | viability at 4 h, 90 µM [1, 3]: 88.2% | viability at 4 h, 30 µM [1, 4]: 104 ± 4.32% | viability at 4 h, 45 µM ([1]; HK-2 cells co-cultured with HLMs (0.16 g/L), with HLMs 0.16 g/L, 4 h, mean): 105 ± 9.39% | viability at 4 h, 60 µM [1, 4]: 101 ± 9.76% | viability at 4 h, 75 µM [1, 4]: 109 ± 3.19% | viability at 4 h, 90 µM [1, 4]: 92.5 ± 2.07% | viability at 4 h, 60 µM ([1]; HK-2 cells, without HLM, raw data, read-out: cell viability(%), single values): 80.5% | viability at 4 h, 30 µM [1, 5]: 97.7 ± 10.7% | viability at 4 h, 45 µM ([1]; HK-2 cells, without HLMs, 4 h, mean): 84.6 ± 13.8% | viability at 4 h, 60 µM [1, 5]: 77.5 ± 4.69% | viability at 4 h, 75 µM [1, 5]: 55 ± 11.3% | viability at 4 h, 90 µM [1, 5]: 46.3 ± 12.5% | decreases in viability of HK-2 cells (HK-2 cells): 25∼40% | 30min BAK metabolic percentage (%) (BAK metabolism in HLMs; BAK 10 µM alone, HLMs, 30 min): 36.51% | Remaining percentage of BAK (%) (BAK metabolism in HLMs; GA 0 µM, 30 min): 63.49 ± 6.05% and 63.49% | Remaining percentage of BAK (%) (BAK metabolism in HLMs; GA 12.5 µM, 30 min): 71.60 ± 6.40% and 71.60% | remaining of BAK (%), single samples (BAK metabolism in HLMs; GA 12.5 µM): 64.61% and 73.02% and 77.17% | Remaining percentage of BAK (%) (BAK metabolism in HLMs; GA 62.5 µM, 30 min): 80.10 ± 6.81 % and 80.10% | remaining of BAK (%), single samples (BAK metabolism in HLMs; GA 62.5 µM): 85.51% and 72.46% and 82.34% | remaining of BAK (%), single samples (BAK metabolism in HLMs; GA 93.75 µM): 73.93% and 93.16% and 104.23% | Remaining percentage of BAK (%) (BAK metabolism in HLMs; GA 125.0 µM, 30 min): 97.24 ± 1.46 % and 97.24% | remaining of BAK (%), single samples (BAK metabolism in HLMs; GA 125 µM): 98.81% and 95.94% and 96.96% | remaining of BAK (%), single samples (BAK metabolism in HLMs; no GA, HLM 0.5 mg/ml): 56.87% and 64.87% and 68.72% | BAK in kidney relative to liver ([2]; 24 h after administration): 1.37- to 1.54 fold | Exposure of BAK, Kidney, single rats ([2]; 24 h after single oral dose): 0.7466 µg/g and 0.7844 µg/g and 0.7813 µg/g and 0.8035 µg/g | Exposure of BAK, Liver, single rats ([2]; 24 h after single oral dose): 0.5617 µg/g and 0.5502 µg/g and 0.5630 µg/g and 0.5314 µg/g | concentration at 24 h ([2]; kidney, 24 h after single oral dose, read-out: Exposure of BAK, Kidney, mean): 755 ng/g | concentration at 24 h ([2]; kidney, 24 h after single oral dose, read-out: Exposure of BAK, Kidney, single rats): 661 ng/g | concentration at 24 h ([2]; liver, 24 h after single oral dose, read-out: Exposure of BAK, Liver, mean): 548 ng/g | concentration at 24 h ([2]; liver, 24 h after single oral dose, read-out: Exposure of BAK, Liver, single rats): 531 ng/g
